In the CheMixHub viscosity set:

Assay: xn = mol fraction of the nth substance listed

COCCOCCOC + CCCCCCCCC
viscosity [mPa·s], 101.33 kPa
Conditions | x1 = 0.0991 | x1 = 0.2003 | x1 = 0.3005 | x1 = 0.3982 | x1 = 0.5023 | x1 = 0.5963 | x1 = 0.6999 | x1 = 0.7997 | x1 = 0.897
298.15 K | 0.642 | 0.64 | 0.665 | 0.691 | 0.712 | 0.747 | 0.794 | 0.836 | 0.898
308.15 K | 0.559 | 0.56 | 0.579 | 0.6 | 0.618 | 0.647 | 0.685 | 0.718 | 0.768
318.15 K | 0.49 | 0.49 | 0.507 | 0.523 | 0.538 | 0.561 | 0.591 | 0.62 | 0.662

ClC(Cl)C(Cl)Cl + COC(C)=O
303.15 K, 101.3 kPa
Conditions | viscosity [mPa·s]
x2 = 0.103 | 1.379
x2 = 0.1999 | 1.268
x2 = 0.3012 | 1.147
x2 = 0.3998 | 1.029
x2 = 0.5031 | 0.8951
x2 = 0.6017 | 0.764
x2 = 0.6999 | 0.6464
x2 = 0.8014 | 0.5324
x2 = 0.9019 | 0.4308

COCCOCCOC + CCCCCCCO
101 kPa
Conditions | viscosity [mPa·s]
293.15 K, x1 = 0.04527 | 5.749
293.15 K, x1 = 0.09631 | 4.758
293.15 K, x1 = 0.1964 | 3.424
293.15 K, x1 = 0.2974 | 2.659
293.15 K, x1 = 0.3948 | 2.201
293.15 K, x1 = 0.4982 | 1.826
293.15 K, x1 = 0.5957 | 1.573
293.15 K, x1 = 0.6957 | 1.385
293.15 K, x1 = 0.8053 | 1.255
293.15 K, x1 = 0.8916 | 1.169
293.15 K, x1 = 0.957 | 1.12
303.15 K, x1 = 0.05391 | 4.113
303.15 K, x1 = 0.09481 | 3.59
303.15 K, x1 = 0.198 | 2.635
303.15 K, x1 = 0.2974 | 2.097
303.15 K, x1 = 0.3935 | 1.765
303.15 K, x1 = 0.4894 | 1.515
303.15 K, x1 = 0.5993 | 1.294
303.15 K, x1 = 0.6968 | 1.153
303.15 K, x1 = 0.8032 | 1.053
303.15 K, x1 = 0.8887 | 0.999
303.15 K, x1 = 0.9613 | 0.958
313.15 K, x1 = 0.05044 | 3.122
313.15 K, x1 = 0.0869 | 2.793
313.15 K, x1 = 0.1869 | 2.128
313.15 K, x1 = 0.2981 | 1.689
313.15 K, x1 = 0.3977 | 1.428
313.15 K, x1 = 0.5081 | 1.228
313.15 K, x1 = 0.5937 | 1.096
313.15 K, x1 = 0.7001 | 0.974
313.15 K, x1 = 0.7989 | 0.903
313.15 K, x1 = 0.8893 | 0.848
313.15 K, x1 = 0.9538 | 0.819

ClC(Cl)C(Cl)Cl + C=C(C)C(=O)OC
303.15 K, 101 kPa
Conditions | viscosity [mPa·s]
x2 = 0.0942 | 1.422
x2 = 0.1967 | 1.317
x2 = 0.2785 | 1.235
x2 = 0.4978 | 0.9971
x2 = 0.598 | 0.8879
x2 = 0.7131 | 0.7662
x2 = 0.905 | 0.5902

Oc1ccccc1 + O=[N+]([O-])c1ccccc1
293.15 K, 101 kPa
Conditions | viscosity [mPa·s]
x1 = 0.0537 | 1.975
x1 = 0.113 | 2.041
x1 = 0.2245 | 2.208
x1 = 0.3306 | 2.46
x1 = 0.4448 | 2.845
x1 = 0.5641 | 3.53
x1 = 0.6497 | 4.19
x1 = 0.7623 | 5.4
x1 = 0.8785 | 7.59

ClC(Cl)C(Cl)Cl + CC#N
303.15 K, 101.32 kPa
Conditions | viscosity [mPa·s]
x2 = 0.1125 | 1.381
x2 = 0.2007 | 1.315
x2 = 0.2582 | 1.266
x2 = 0.3568 | 1.17
x2 = 0.4174 | 1.103
x2 = 0.4937 | 1.012
x2 = 0.5964 | 0.8767
x2 = 0.6989 | 0.7317
x2 = 0.8504 | 0.5162
x2 = 0.9233 | 0.4184

C[N+](C)(C)CCO.O=C([O-])C(F)(F)F + O
Conditions | viscosity [mPa·s]
298 K, 101.33 kPa, x2 = 0.8 | 7.7

COC[N+]1(C)CCCC1.O=S(=O)([N-]S(=O)(=O)C(F)(F)F)C(F)(F)F + O
101 kPa, x2 = 0.1527
Conditions | viscosity [mPa·s]
293.15 K | 35.2
298.15 K | 29.4
303.15 K | 24.8
313.15 K | 18.1
323.15 K | 13.8

CC=CC(=O)O + Cc1ccccc1
viscosity [mPa·s], 101 kPa
Conditions | 298.15 K | 303.15 K | 313.15 K | 323.15 K
x1 = 0.0503 | 0.5712 | 0.5371 | 0.4796 | 0.4317
x1 = 0.0975 | 0.5997 | 0.5609 | 0.4998 | 0.4502
x1 = 0.148 | 0.6218 | 0.5858 | 0.5213 | 0.4671

CO/N=C(\C(=O)N[C@@H]1C(=O)N2C(C(=O)[O-])=C(CSc3nc(C)c(CC(=O)[O-])s3)CS[C@H]12)c1csc(N)n1.[Na+].[Na+] + O
Conditions | viscosity [mPa·s]
293.15 K, 101 kPa, x1 = 0.002695 | 1.285

COC(=O)OC + CCC(C)O
101.3 kPa
Conditions | viscosity [mPa·s]
293.15 K, x1 = 0.0505 | 2.908
293.15 K, x1 = 0.0986 | 2.37
293.15 K, x1 = 0.2131 | 1.522
293.15 K, x1 = 0.2801 | 1.235
293.15 K, x1 = 0.4092 | 0.94
293.15 K, x1 = 0.511 | 0.83
293.15 K, x1 = 0.6172 | 0.753
293.15 K, x1 = 0.7072 | 0.696
293.15 K, x1 = 0.7997 | 0.637
293.15 K, x1 = 0.8229 | 0.621
293.15 K, x1 = 0.9518 | 0.595
298.15 K, x1 = 0.0572 | 2.399
298.15 K, x1 = 0.0994 | 1.991
298.15 K, x1 = 0.1958 | 1.354
298.15 K, x1 = 0.3029 | 0.991
298.15 K, x1 = 0.3339 | 0.926
298.15 K, x1 = 0.5075 | 0.756
298.15 K, x1 = 0.6051 | 0.707
298.15 K, x1 = 0.7037 | 0.641
298.15 K, x1 = 0.808 | 0.569
298.15 K, x1 = 0.9046 | 0.531
298.15 K, x1 = 0.9523 | 0.542
303.15 K, x1 = 0.0573 | 1.931
303.15 K, x1 = 0.0842 | 1.728
303.15 K, x1 = 0.1936 | 1.195
303.15 K, x1 = 0.2981 | 0.943
303.15 K, x1 = 0.3926 | 0.809
303.15 K, x1 = 0.4938 | 0.709
303.15 K, x1 = 0.59 | 0.632
303.15 K, x1 = 0.6561 | 0.594
303.15 K, x1 = 0.7945 | 0.549
303.15 K, x1 = 0.8916 | 0.547
303.15 K, x1 = 0.9483 | 0.546
313.15 K, x1 = 0.0498 | 1.512
313.15 K, x1 = 0.1005 | 1.289
313.15 K, x1 = 0.2009 | 0.975
313.15 K, x1 = 0.2952 | 0.795
313.15 K, x1 = 0.4047 | 0.669
313.15 K, x1 = 0.5109 | 0.6
313.15 K, x1 = 0.6072 | 0.561
313.15 K, x1 = 0.6982 | 0.529
313.15 K, x1 = 0.7992 | 0.502
313.15 K, x1 = 0.8977 | 0.486
313.15 K, x1 = 0.9583 | 0.486
